Laboratory results as given in ChEMBL document CHEMBL1201862, “PubChem BioAssay data set” (2004).
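1) Cells in 96-well plates. 2) Compound, 48 h, 5 concentrations. 3) Linear interpolation between surrounding doses. 4) Unreached endpoint = highest concentration. GI50 marks 50% less growth.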 Active and inactive are the calls of the source. Rule as the data show it: active = GI50 up to about 1.1 µM and inactive = higher.

Columns and labels:
Test in all cases: NCI anticancer screen, dose series, 48 h
[1] = system: RXF 393
[2] = system: HCT-15
[3] = system: HOP-62
[4] = system: U-251
[5] = system: A498
[6] = system: 786-0
[7] = system: HOP-92
[8] = system: NCI-H522
[9] = system: COLO 205
[10] = system: SNB-19
[11] = system: IGROV-1
[12] = system: UO-31
[13] = system: EKVX
[14] = system: CCRF-CEM
[15] = system: UACC-257
[16] = system: SR

SMILES	GI50 [1]	GI50 [2] [µM]	GI50 [3]	GI50 [4]	GI50 [5]	GI50 [6]	GI50 [7]	GI50 [8]	GI50 [9]	GI50 [10]	GI50 [11]	GI50 [12]	GI50 [13]	GI50 [14]	GI50 [15]	GI50 [16]
N#CC(C(=O)/C(=N/N)C(C#N)c1ccc(Cl)cc1)c1ccc(Cl)cc1 (centres undefined)	> 100 µM (inactive)	> 100	> 100 µM (inactive)	> 100 µM (inactive)	> 100 µM (inactive)	> 100 µM (inactive)	> 100 µM (inactive)	> 100 µM (inactive)	> 100 µM (inactive)	> 100 µM (inactive)	> 100 µM (inactive)	> 100 µM (inactive)	> 100 µM (inactive)	> 100 µM (inactive)	> 100 µM (inactive)	–
Cc1nc2sccn2c1C(=O)NNC(N)=S	> 100 µM (inactive)	> 100	> 100 µM (inactive)	> 100 µM (inactive)	–	> 100 µM (inactive)	77.6 µM (inactive)	> 100 µM (inactive)	> 100 µM (inactive)	> 100 µM (inactive)	> 100 µM (inactive)	–	> 100 µM (inactive)	> 100 µM (inactive)	> 100 µM (inactive)	> 100 µM (inactive)
CCc1cc(CCC(=O)Nc2ccccc2[N+](=O)[O-])nc(S)n1	> 100 µM (inactive)	> 100	> 100 µM (inactive)	> 100 µM (inactive)	–	> 100 µM (inactive)	> 100 µM (inactive)	–	> 100 µM (inactive)	> 100 µM (inactive)	> 100 µM (inactive)	> 100 µM (inactive)	> 100 µM (inactive)	> 100 µM (inactive)	> 100 µM (inactive)	> 100 µM (inactive)
CCOc1ncnc2ccc(Cl)c(I)c12	15 µM (inactive)	> 100	> 100 µM (inactive)	> 100 µM (inactive)	31 µM (inactive)	87.9 µM (inactive)	–	> 10 µM (inactive)	> 100 µM (inactive)	89.1 µM (inactive)	38.7 µM (inactive)	27.7 µM (inactive)	11.2 µM (inactive)	70.6 µM (inactive)	> 100 µM (inactive)	47.2 µM (inactive)
Clc1ccccc1C1SCc2nc3ccccc3n21 (centres undefined)	24.5 µM (inactive)	22.6	19.3 µM (inactive)	22.8 µM (inactive)	–	25.7 µM (inactive)	8.79 µM (inactive)	9.55 µM (inactive)	49.7 µM (inactive)	12.4 µM (inactive)	33.6 µM (inactive)	–	22.6 µM (inactive)	30.3 µM (inactive)	–	19.4 µM (inactive)
C=C(COC(C)=O)CC(/C=C(\C)CCC=C(C)C)OC(C)=O (centres undefined)	> 100 µM (inactive)	> 100	> 100 µM (inactive)	> 100 µM (inactive)	> 100 µM (inactive)	> 100 µM (inactive)	46.5 µM (inactive)	> 100 µM (inactive)	> 100 µM (inactive)	> 100 µM (inactive)	> 100 µM (inactive)	> 100 µM (inactive)	> 100 µM (inactive)	70.5 µM (inactive)	–	–
CC(C)=CC(=O)C1c2cccc(O)c2C(=O)c2c(O)cc(C)cc21 (centres undefined)	2.16 µM (inactive)	3.24	2.86 µM (inactive)	1.73 µM (inactive)	10.7 µM (inactive)	5.06 µM (inactive)	2.75 µM (inactive)	2 µM (inactive)	1.79 µM (inactive)	2.12 µM (inactive)	2.09 µM (inactive)	2.09 µM (inactive)	12.6 µM (inactive)	2.55 µM (inactive)	2.88 µM (inactive)	–
CCOC(=N)CC(=O)c1ccccc1	> 100 µM (inactive)	–	> 100 µM (inactive)	> 100 µM (inactive)	> 100 µM (inactive)	> 100 µM (inactive)	> 100 µM (inactive)	> 100 µM (inactive)	> 100 µM (inactive)	> 100 µM (inactive)	> 100 µM (inactive)	> 100 µM (inactive)	> 100 µM (inactive)	> 100 µM (inactive)	> 100 µM (inactive)	> 100 µM (inactive)
COC(=O)C(C(=O)C(=O)NC1=C(Cl)C(=O)c2ccccc2C1=O)c1csc(-n2nc(-c3ccccc3)cc2-c2ccccc2)n1 (centres undefined)	34.7 µM (inactive)	> 100	> 100 µM (inactive)	> 100 µM (inactive)	> 100 µM (inactive)	> 100 µM (inactive)	> 100 µM (inactive)	> 100 µM (inactive)	> 100 µM (inactive)	> 100 µM (inactive)	> 100 µM (inactive)	6.08 µM (inactive)	9.66 µM (inactive)	31 µM (inactive)	> 100 µM (inactive)	> 100 µM (inactive)
CCCCCCC(C)OC(=O)/C=C(\CC(=O)OC(C)CCCCCC)C(=O)OC(C)CCCCCC (centres undefined)	> 100 µM (inactive)	> 100	> 100 µM (inactive)	> 100 µM (inactive)	> 100 µM (inactive)	> 100 µM (inactive)	> 100 µM (inactive)	> 100 µM (inactive)	> 100 µM (inactive)	–	> 100 µM (inactive)	> 100 µM (inactive)	> 100 µM (inactive)	–	> 100 µM (inactive)	–
O=C(CCn1[nH]c(=O)c(Cl)c(Cl)c1=O)NO	> 100 µM (inactive)	> 100	> 100 µM (inactive)	> 100 µM (inactive)	> 100 µM (inactive)	> 100 µM (inactive)	–	> 100 µM (inactive)	> 100 µM (inactive)	> 100 µM (inactive)	> 100 µM (inactive)	> 100 µM (inactive)	> 100 µM (inactive)	> 100 µM (inactive)	> 100 µM (inactive)	–
COC12OCCN(CCO)C1=CC(=O)C1(C)N=NC(C)C12 (centres undefined)	> 100 µM (inactive)	> 100	–	> 100 µM (inactive)	> 100 µM (inactive)	> 100 µM (inactive)	> 100 µM (inactive)	> 100 µM (inactive)	> 100 µM (inactive)	–	> 100 µM (inactive)	> 100 µM (inactive)	> 100 µM (inactive)	> 100 µM (inactive)	> 100 µM (inactive)	–
COc1ccc2nc(NC(=O)C(=O)CC(=O)c3ccc(Cl)cc3)sc2c1	31.3 µM (inactive)	> 100	> 100 µM (inactive)	48.4 µM (inactive)	> 100 µM (inactive)	> 100 µM (inactive)	30.5 µM (inactive)	92.3 µM (inactive)	> 100 µM (inactive)	95.5 µM (inactive)	73.1 µM (inactive)	69 µM (inactive)	48.1 µM (inactive)	> 100 µM (inactive)	> 100 µM (inactive)	> 100 µM (inactive)
CSCC1CC(c2ccc(Cl)cc2)=NO1 (centres undefined)	–	> 100	> 100 µM (inactive)	> 100 µM (inactive)	> 100 µM (inactive)	> 100 µM (inactive)	> 100 µM (inactive)	> 100 µM (inactive)	> 100 µM (inactive)	–	> 100 µM (inactive)	> 100 µM (inactive)	> 100 µM (inactive)	> 100 µM (inactive)	> 100 µM (inactive)	> 100 µM (inactive)
CCCCCCCCCCCCC(Br)C(=O)NCC(N)=O (centres undefined)	3.6 µM (inactive)	8.87	15 µM (inactive)	11.6 µM (inactive)	13.6 µM (inactive)	6.85 µM (inactive)	3.7 µM (inactive)	2.28 µM (inactive)	21.2 µM (inactive)	11.2 µM (inactive)	9.66 µM (inactive)	2.09 µM (inactive)	20.6 µM (inactive)	2.45 µM (inactive)	11.4 µM (inactive)	–
N#Cc1ccc(Oc2ccccc2)cc1C#N	> 100 µM (inactive)	19.1	> 100 µM (inactive)	44.3 µM (inactive)	> 100 µM (inactive)	> 100 µM (inactive)	> 100 µM (inactive)	23.4 µM (inactive)	23.2 µM (inactive)	> 100 µM (inactive)	> 100 µM (inactive)	92.3 µM (inactive)	> 100 µM (inactive)	22.4 µM (inactive)	> 100 µM (inactive)	20.4 µM (inactive)
O=c1oc2c3ccc4ccccc4c3n(CCN3CCOCC3)c2c2ccccc12	–	–	26.4 µM (inactive)	–	–	6.44 µM (inactive)	> 100 µM (inactive)	2.48 µM (inactive)	> 100 µM (inactive)	> 100 µM (inactive)	> 100 µM (inactive)	0.622 µM (active)	14.8 µM (inactive)	1.48 µM (inactive)	> 100 µM (inactive)	1.15 µM (inactive)
COc1ccc(/N=N/c2c(-c3ccccc3)nn(C(=O)CC(=O)Nc3ccccc3Cl)c2-c2ccccc2)cc1	> 100 µM (inactive)	58.9	> 100 µM (inactive)	> 100 µM (inactive)	> 100 µM (inactive)	> 100 µM (inactive)	20.6 µM (inactive)	> 100 µM (inactive)	> 100 µM (inactive)	> 100 µM (inactive)	> 100 µM (inactive)	42.9 µM (inactive)	> 100 µM (inactive)	30.8 µM (inactive)	> 100 µM (inactive)	2.82 µM (inactive)
O=C1Nc2nc3ccccc3n2N=C2CCCC12 (centres undefined)	> 100 µM (inactive)	> 100	> 100 µM (inactive)	> 100 µM (inactive)	> 100 µM (inactive)	> 100 µM (inactive)	–	–	> 100 µM (inactive)	> 100 µM (inactive)	> 100 µM (inactive)	> 100 µM (inactive)	> 100 µM (inactive)	> 100 µM (inactive)	> 100 µM (inactive)	–
COc1ccc(NC(=O)c2cc(OC)cc(OC)c2)cc1	17.8 µM (inactive)	6.93	> 36.5 µM (inactive)	17.5 µM (inactive)	35.4 µM (inactive)	> 85.7 µM (inactive)	> 100 µM (inactive)	13.6 µM (inactive)	7.1 µM (inactive)	> 60.8 µM (inactive)	28 µM (inactive)	44 µM (inactive)	24.2 µM (inactive)	27.9 µM (inactive)	98.4 µM (inactive)	11.6 µM (inactive)
